Data: patent US6734188B1, “Composition for treatment of constipation and irritable bowel syndrome” (priority 1999, dated 2004)

How the values were obtained:
[1] = test system: healthy, non-smoking volunteers; assay: Gut transit time study with radio opaque markers, oral naloxone with or without oral codeine (Example 1); assay type: in vivo, human; conditions: for Gut transit time, Maximum / Gut transit time, Mean / Gut transit time, Median / Gut transit time, Minimum: codeine 30 mg bd
Experimental: The study consisted of four 10-day study periods, with at least two weeks between each, which were in a randomised order and the capsules being administered daily in a double blind manner. […] The capsules were administered twice a day (“bd”).
The study protocol was as follows: On day 0, subjects were given capsule B and on days 1 to 9, were given capsules A and B. On days 3 to 6, the subjects took transit markers; packaged in distinctly coloured capsules, each containing 20 different shaped radio opaque marker pellets (Dunn Clinical Nutrition). From day 7, the subjects' next two bowel motions were collected. A normal diet was adhered to throughout the study period and recorded on days 3 to 6.

[2] = test system: patients with advanced cancer; conditions: patients with advanced cancer treated with an opioid analgesic; cited from earlier work
[3] = test system: male volunteers; assay: Gut transit time study, fixed doses of naloxone with or without codeine (Example 2); assay type: in vivo, human; conditions: naloxone 5, 10 and 20 mg bd, Gelucire 53/10:42/12 95:5, Eudragit LS coated; with 30 mg bd codeine in second week
Experimental: In a further study, the procedure of Example 1 was substantially followed using Gelucire™ 53/10 & Gelucire™ 42/12 95:5 as the polyglycolised glyceride matrix.
The gut transit time was measured at the end of the first week. During the second week, each volunteer was also given 30 mg bd codeine and gut transit times measured again at the end of the second week.

[4] = after parenteral administration; cited from earlier work
[5] = test system: patient with Irritable Bowel Syndrome; conditions: administered intermittently, similar dosage form to Example 3
[6] = in vivo; cited from earlier work
[7] = 8 patients whose transit time was increased by codeine (n = 8), naloxone 10 mg bd
[8] = all patients (n = 12), oral capsules twice a day, naloxone 10 mg bd
[9] = all patients (n = 12), oral capsules twice a day, naloxone 10 mg bd (Gelucire 50/13:42/12 82.5:17.5, enteric coated)

| Structure (SMILES) | Gut transit time, Maximum [1, 7] | Gut transit time, Mean [1, 7] | Gut transit time, Median [1, 7] | Gut transit time, Minimum [1, 7] | Gut transit time, Maximum [1, 8] | Gut transit time, Mean [1, 8] | Gut transit time, Median [1, 8] | Gut transit time, Minimum [1, 9] | Laxative effect [2] | Effect on gut transit time (in words) [3] | Plasma half-life [4] | Clinical outcome in irritable bowel syndrome [5] | Effect on gut transit time (in words) ([1]; Example 1, naloxone 10 mg bd alone or with codeine 30 mg bd) | Crossing of the blood-brain barrier [6] |
| --- | --- | --- | --- | --- | --- | --- | --- | --- | --- | --- | --- | --- | --- | --- |
| COc1ccc2c3c1O[C@H]1[C@@H](O)C=C[C@H]4[C@@H](C2)N(C)CC[C@@]341 [Codeine, codeine phosphate] | 84.00 h | 66.17 h | 67.85 h | 50.42 h | 84.00 h | 57.27 h | 56.76 h | 25.22 h | – | – | – | – | – | – |
| C=CCN1CC[C@]23c4c5ccc(O)c4O[C@H]2C(=O)CC[C@@]3(O)[C@H]1C5 [Naloxone, 17-allyl-6-deoxy-7,8-dihydro-14-hydroxy-6-oxonormorphine] | 63.91 h | 41.41 h | 37.95 h | 27.40 h | 63.91 h | 42.13 h | 38.85 h | 27.40 h | produce a laxative effect | accelerate gut transit time | about 1 h | substantial clinical benefit | reduced gut transit time | – |
| C[N@+]1(CC2CC2)CC[C@]23c4c5ccc(O)c4O[C@H]2C(=O)CC[C@@]3(O)[C@H]1C5 [methylnaltrexone] | – | – | – | – | – | – | – | – | – | – | – | – | – | do not cross the blood-brain barrier to a significant extent |
